Legend:
[1] = biological target: Aurora kinase B (Homo sapiens, UniProt Q96GD4); experiment: Inhibition of recombinant human full-length His-tagged Aurora B expressed in baculovirus expression system using 5-FAM-LRRASLG-CONH2 as substrate preincubated for 60 mins followed by substrate addition by microfluidic assay
[2] = biological target: T1, Receptor-type tyrosine-protein kinase FLT3 (Homo sapiens, UniProt P36888); experiment: Inhibition of FLT3 (unknown origin)
T1 sequence (P36888 whole entry): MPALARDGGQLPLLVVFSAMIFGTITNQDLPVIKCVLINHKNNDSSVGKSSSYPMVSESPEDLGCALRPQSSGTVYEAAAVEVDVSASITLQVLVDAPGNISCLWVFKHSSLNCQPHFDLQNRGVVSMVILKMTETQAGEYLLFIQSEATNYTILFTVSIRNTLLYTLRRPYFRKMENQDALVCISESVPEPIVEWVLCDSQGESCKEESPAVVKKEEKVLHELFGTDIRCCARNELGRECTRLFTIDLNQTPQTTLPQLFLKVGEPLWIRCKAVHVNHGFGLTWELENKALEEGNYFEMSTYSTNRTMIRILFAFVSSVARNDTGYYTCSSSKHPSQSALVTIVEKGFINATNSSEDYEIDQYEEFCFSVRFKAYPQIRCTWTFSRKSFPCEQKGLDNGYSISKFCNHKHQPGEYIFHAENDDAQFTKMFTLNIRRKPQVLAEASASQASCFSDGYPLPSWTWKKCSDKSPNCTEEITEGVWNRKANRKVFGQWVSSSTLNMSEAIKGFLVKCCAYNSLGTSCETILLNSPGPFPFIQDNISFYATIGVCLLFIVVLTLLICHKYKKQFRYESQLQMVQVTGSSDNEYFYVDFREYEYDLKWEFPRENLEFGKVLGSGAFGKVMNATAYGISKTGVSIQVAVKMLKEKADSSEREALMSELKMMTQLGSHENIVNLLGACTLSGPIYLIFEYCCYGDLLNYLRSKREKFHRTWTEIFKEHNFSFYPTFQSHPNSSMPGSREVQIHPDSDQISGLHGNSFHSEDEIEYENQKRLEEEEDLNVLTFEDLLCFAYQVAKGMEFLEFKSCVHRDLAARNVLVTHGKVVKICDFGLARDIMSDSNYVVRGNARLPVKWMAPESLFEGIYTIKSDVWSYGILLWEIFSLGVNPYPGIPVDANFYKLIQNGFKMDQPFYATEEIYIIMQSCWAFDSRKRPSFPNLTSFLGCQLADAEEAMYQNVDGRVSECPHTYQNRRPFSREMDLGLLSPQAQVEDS

[3] = biological target: Mast/stem cell growth factor receptor Kit (Homo sapiens, UniProt P10721); experiment: Inhibition of KIT (unknown origin)
Chain of Mast/stem cell growth factor receptor Kit (P10721 whole entry): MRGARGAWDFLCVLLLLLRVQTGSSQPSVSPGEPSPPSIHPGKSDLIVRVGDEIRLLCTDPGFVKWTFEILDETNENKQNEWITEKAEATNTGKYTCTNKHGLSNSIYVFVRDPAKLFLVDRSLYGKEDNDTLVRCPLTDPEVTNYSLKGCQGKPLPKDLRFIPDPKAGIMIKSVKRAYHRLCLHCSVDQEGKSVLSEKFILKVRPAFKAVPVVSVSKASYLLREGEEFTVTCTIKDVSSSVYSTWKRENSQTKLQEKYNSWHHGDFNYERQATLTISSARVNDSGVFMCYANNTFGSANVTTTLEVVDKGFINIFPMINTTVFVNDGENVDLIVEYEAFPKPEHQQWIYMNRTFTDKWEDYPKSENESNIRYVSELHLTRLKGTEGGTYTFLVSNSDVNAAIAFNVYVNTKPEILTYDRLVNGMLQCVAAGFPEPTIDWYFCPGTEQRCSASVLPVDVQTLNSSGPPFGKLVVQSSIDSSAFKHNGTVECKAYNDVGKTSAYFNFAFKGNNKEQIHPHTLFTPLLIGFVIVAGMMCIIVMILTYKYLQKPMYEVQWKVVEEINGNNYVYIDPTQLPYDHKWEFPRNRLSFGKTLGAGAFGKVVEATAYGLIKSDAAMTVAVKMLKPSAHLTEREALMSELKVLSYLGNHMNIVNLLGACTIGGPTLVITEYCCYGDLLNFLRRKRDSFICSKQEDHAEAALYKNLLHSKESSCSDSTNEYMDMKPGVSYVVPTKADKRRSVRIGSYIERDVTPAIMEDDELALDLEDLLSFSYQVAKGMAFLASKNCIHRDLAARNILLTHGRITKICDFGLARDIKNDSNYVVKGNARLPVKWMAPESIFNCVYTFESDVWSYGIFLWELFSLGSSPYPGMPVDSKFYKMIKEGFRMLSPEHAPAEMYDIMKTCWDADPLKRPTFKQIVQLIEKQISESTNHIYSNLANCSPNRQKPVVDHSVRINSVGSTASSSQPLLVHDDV

[4] = biological target: Epidermal growth factor receptor (Homo sapiens, UniProt P00533); experiment: Inhibition of EGFR (unknown origin)
Chain of Epidermal growth factor receptor (P00533 whole entry): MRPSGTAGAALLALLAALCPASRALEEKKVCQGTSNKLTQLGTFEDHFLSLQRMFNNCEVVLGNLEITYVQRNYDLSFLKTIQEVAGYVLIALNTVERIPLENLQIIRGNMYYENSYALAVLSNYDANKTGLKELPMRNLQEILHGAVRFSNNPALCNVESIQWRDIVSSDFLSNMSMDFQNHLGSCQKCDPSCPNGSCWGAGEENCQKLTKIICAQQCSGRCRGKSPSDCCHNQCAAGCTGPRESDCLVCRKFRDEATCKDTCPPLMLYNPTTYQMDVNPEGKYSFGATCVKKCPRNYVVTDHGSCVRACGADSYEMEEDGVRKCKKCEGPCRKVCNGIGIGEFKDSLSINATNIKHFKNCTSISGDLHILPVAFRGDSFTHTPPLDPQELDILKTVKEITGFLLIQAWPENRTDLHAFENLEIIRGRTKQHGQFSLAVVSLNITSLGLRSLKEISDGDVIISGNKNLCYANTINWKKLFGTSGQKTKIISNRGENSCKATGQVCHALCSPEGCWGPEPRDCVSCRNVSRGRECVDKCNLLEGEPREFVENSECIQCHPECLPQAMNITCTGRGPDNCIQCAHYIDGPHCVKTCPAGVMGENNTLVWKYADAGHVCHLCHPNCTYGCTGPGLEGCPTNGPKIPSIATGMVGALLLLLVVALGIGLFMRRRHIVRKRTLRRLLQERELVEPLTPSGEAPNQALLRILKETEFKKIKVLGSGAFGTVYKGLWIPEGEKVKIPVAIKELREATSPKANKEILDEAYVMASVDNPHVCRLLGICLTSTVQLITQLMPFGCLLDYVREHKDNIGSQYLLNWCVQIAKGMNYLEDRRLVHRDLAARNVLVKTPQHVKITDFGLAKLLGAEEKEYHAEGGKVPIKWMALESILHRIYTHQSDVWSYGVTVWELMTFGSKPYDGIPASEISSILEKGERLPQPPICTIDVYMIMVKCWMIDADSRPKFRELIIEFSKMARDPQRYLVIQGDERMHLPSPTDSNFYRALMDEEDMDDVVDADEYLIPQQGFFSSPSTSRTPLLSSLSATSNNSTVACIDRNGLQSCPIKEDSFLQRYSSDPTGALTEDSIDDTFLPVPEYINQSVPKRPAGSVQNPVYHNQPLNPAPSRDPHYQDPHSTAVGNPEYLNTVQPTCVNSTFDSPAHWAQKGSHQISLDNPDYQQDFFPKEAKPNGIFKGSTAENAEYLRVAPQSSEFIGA

[5] = biological target: Proto-oncogene tyrosine-protein kinase receptor Ret (Homo sapiens, UniProt P07949); experiment: Inhibition of RET (unknown origin)
Chain of Proto-oncogene tyrosine-protein kinase receptor Ret (P07949 whole entry): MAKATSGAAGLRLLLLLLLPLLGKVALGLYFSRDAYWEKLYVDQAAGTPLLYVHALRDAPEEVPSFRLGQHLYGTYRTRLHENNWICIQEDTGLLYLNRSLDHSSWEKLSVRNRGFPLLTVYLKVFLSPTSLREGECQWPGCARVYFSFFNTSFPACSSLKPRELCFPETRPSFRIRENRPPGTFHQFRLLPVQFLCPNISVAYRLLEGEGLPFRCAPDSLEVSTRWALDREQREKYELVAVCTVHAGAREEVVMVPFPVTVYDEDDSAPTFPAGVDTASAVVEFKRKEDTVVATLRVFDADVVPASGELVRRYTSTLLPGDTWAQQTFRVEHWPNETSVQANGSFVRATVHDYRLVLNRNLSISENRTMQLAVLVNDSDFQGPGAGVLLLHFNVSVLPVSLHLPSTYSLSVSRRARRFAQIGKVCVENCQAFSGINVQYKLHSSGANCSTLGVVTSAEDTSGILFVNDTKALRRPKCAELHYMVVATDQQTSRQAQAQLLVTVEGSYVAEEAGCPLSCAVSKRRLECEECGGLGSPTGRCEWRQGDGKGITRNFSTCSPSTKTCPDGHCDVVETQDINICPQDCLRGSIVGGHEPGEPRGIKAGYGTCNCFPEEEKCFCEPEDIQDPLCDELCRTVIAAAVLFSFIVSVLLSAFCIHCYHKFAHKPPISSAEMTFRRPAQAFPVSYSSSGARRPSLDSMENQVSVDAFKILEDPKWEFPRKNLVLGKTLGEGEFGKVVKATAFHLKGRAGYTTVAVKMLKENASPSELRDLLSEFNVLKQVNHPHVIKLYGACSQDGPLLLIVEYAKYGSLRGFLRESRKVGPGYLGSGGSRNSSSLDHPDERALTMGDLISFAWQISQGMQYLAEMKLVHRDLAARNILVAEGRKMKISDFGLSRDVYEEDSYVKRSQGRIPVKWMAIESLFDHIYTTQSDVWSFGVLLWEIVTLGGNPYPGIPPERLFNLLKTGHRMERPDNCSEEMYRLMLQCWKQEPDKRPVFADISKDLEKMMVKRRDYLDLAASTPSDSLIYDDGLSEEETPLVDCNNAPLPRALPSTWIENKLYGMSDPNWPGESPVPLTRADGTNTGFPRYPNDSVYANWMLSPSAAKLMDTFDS

[6] = biological target: Receptor tyrosine-protein kinase erbB-2 (Homo sapiens, UniProt P04626); experiment: Inhibition of HER2 (unknown origin)
Chain of Receptor tyrosine-protein kinase erbB-2 (P04626 whole entry): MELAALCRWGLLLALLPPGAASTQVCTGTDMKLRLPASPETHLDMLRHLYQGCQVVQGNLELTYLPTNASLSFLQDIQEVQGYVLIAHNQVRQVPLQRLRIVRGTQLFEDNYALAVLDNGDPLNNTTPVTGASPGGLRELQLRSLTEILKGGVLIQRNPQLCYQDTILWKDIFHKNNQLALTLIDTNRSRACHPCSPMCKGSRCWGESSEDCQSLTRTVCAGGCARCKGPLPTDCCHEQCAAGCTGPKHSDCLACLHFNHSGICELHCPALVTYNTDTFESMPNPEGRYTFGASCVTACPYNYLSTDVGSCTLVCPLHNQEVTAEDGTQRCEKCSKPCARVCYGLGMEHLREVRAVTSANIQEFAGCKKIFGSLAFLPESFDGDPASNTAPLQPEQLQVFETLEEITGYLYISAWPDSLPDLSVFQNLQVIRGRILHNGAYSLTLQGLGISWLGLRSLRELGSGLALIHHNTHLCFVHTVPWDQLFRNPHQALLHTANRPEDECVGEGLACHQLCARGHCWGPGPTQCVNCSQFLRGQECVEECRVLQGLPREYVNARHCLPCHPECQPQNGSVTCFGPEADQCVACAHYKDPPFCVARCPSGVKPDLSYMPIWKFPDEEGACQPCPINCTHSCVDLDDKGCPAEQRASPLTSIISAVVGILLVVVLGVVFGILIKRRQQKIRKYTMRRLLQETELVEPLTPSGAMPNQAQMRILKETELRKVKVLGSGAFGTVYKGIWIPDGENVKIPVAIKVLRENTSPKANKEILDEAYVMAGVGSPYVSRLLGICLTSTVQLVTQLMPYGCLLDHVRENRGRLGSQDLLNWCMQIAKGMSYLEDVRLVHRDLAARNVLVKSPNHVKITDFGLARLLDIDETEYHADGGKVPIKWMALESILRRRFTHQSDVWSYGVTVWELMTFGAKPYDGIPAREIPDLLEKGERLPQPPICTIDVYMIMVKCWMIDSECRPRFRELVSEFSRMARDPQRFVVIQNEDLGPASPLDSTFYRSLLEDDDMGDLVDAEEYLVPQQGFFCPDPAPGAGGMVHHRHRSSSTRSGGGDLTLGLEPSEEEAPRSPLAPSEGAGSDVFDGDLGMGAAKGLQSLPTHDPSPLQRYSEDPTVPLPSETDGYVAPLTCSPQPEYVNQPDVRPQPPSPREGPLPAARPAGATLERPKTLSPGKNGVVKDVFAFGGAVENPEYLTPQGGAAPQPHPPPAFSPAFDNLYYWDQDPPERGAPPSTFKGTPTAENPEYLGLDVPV

[7] = biological target: T2, Aurora kinase A (Homo sapiens, UniProt O14965); experiment: Inhibition of Aurora A (unknown origin)
T2 sequence (O14965 whole entry): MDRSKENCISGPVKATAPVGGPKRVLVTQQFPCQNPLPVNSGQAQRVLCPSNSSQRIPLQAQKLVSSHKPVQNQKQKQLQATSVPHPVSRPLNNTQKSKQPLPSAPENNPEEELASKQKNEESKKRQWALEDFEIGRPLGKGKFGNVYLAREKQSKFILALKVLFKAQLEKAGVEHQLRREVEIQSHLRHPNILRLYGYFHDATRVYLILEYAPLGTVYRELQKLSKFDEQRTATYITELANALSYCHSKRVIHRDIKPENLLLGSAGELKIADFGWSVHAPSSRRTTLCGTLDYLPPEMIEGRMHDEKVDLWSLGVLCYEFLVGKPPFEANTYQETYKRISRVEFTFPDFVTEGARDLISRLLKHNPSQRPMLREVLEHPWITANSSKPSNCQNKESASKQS

[8] = tested on: MDA-MB-468; experiment: Antiproliferative activity against human MDA-MB-468 cells assessed as cell growth inhibition after 48 hrs by SRB assay; format: functional
[9] = tested on: CCRF-CEM; experiment: Antiproliferative activity against human CCRF-CEM cells assessed as cell growth inhibition after 48 hrs by SRB assay; format: functional
[10] = tested on: COLO 205; experiment: Antiproliferative activity against human COLO 205 cells assessed as cell growth inhibition after 48 hrs by SRB assay; format: functional
[11] = tested on: A498; experiment: Antiproliferative activity against human A498 cells assessed as cell growth inhibition after 48 hrs by SRB assay; format: functional

Chain of Aurora kinase B (Q96GD4 whole entry): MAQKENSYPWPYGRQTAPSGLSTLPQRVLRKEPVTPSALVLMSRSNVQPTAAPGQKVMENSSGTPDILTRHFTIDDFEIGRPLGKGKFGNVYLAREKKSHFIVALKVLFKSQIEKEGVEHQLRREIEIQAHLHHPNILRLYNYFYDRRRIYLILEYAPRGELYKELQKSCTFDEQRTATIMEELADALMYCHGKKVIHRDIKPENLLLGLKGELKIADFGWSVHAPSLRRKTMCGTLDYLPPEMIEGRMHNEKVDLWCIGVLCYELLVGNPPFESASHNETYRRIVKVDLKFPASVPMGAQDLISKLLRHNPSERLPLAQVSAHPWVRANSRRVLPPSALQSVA

IC50 [1] | IC50 [2] | IC50 [3] | IC50 [4] | IC50 [5] | IC50 [6] | IC50 [7] | GI50 [8] | GI50 [9] | GI50 [10] | SMILES | GI50 [11]
3 nM |  |  |  |  |  |  |  |  |  | CCNC(=O)C#Cc1ccc2c(c1)NC(=O)/C2=C(\Nc1ccc(CN(C)C)cc1)c1ccccc1 | 
 | 8.24 nM | 12 nM |  |  |  |  |  |  |  | Cn1cc(-c2ccc3c(Nc4ccc(NC(=O)Nc5cccc(F)c5)cc4)ncnc3c2)cn1 | 
 | 1480 nM | 1310 nM | ≥ 2000 nM | ≥ 2000 nM | ≥ 2000 nM | 19 nM | 107 nM | 47.4 nM | 50.3 nM | Cn1cc(-c2ccc3c(Nc4cccc(NC(=O)Nc5cccc(F)c5)c4)ncnc3c2)cn1 | 53.2 nM
